Test systems include PC-3 prostate; MALME-3M melanoma; OVCAR-3 ovarian; UACC-62 melanoma; MDA-MB-435; MOLT-4 leukemia; HL-60(TB) leukemia; NCI-H23 lung; IGROV1 ovarian; NCI/ADR-RES ovarian.
What all share (assay): NCI-60 cell line screen, 48 h

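Assay format: 96-well plates, 48-hour exposure. The concentration for full growth arrest is given as TGI.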

Turning to `CC(=O)Nc1ccc(OC2=CCN(C)CC2)cc1`, the TGI with PC-3 prostate, in the test with MALME-3M melanoma, in the test with OVCAR-3 ovarian, in the test with UACC-62 melanoma, in the test on MDA-MB-435 and in the test on MOLT-4 leukemia was over 100 µM throughout. The TGI in the test on HL-60(TB) leukemia, in the test on NCI-H23 lung, in the test with IGROV1 ovarian and in the test with NCI/ADR-RES ovarian was over 100 µM in each case.
On to `O=C(O)c1nc(-c2ccccc2)[nH]c1C(=O)O`, for which the TGI in the test on PC-3 prostate turned out to be 11.6 µM; with MALME-3M melanoma, 30.6 µM; with OVCAR-3 ovarian, 26.4 µM; in the test with UACC-62 melanoma, 32.4 µM; in the test with MDA-MB-435, 21.3 µM; with MOLT-4 leukemia, 9.64 µM. For the same compound, the TGI was 0.49 µM with HL-60(TB) leukemia, 31.8 µM in the test on NCI-H23 lung, 28.2 µM in the test on IGROV1 ovarian and over 82.8 µM in the test on NCI/ADR-RES ovarian.
Turning to `O=C(O)c1ccn(-c2cccc(-n3ccc(C(=O)O)n3)n2)n1`, the TGI with PC-3 prostate, with MALME-3M melanoma, in the test with OVCAR-3 ovarian, with UACC-62 melanoma, with MDA-MB-435 and with MOLT-4 leukemia was over 100 µM in each case. Moreover, the TGI in the test on HL-60(TB) leukemia, with NCI-H23 lung, in the test on IGROV1 ovarian and with NCI/ADR-RES ovarian was over 100 µM in each case.
As for `COC(=O)c1c(OC(C)=O)ccc2c1c1c(n2C)C(=O)c2ccccc2C1=O`, the TGI with PC-3 prostate is 88.1 µM; in the test with MALME-3M melanoma it was 55.3 µM; in the test with OVCAR-3 ovarian it was 63 µM; in the test with UACC-62 melanoma, over 100 µM; in the test on MDA-MB-435, over 100 µM; in the test with MOLT-4 leukemia, over 100 µM. Moreover, the TGI in the test on HL-60(TB) leukemia is over 100 µM; in the test with NCI-H23 lung it was 61.2 µM; with IGROV1 ovarian it was 22.3 µM; with NCI/ADR-RES ovarian, over 100 µM.
In the case of `Nc1ncnc2c1nnn2C1CCC(CP(=O)(O)O)C1` (stereo not given), the TGI with PC-3 prostate, in the test with MALME-3M melanoma, in the test with OVCAR-3 ovarian, in the test with UACC-62 melanoma, with MDA-MB-435 and in the test with MOLT-4 leukemia was over 100 µM each time. Moreover, the TGI in the test with HL-60(TB) leukemia, with NCI-H23 lung, with IGROV1 ovarian and with NCI/ADR-RES ovarian was over 100 µM in each case.
Turning to `COc1c(O)cc(O)c2c(=O)cc(-c3ccccc3)oc12`, the TGI with PC-3 prostate is over 100 µM; in the test with MALME-3M melanoma, over 100 µM; in the test on OVCAR-3 ovarian, 72.5 µM; in the test on UACC-62 melanoma, over 100 µM; in the test on MDA-MB-435, over 100 µM; with MOLT-4 leukemia, over 100 µM. For the same compound, the TGI in the test on HL-60(TB) leukemia was 57.3 µM; with NCI-H23 lung it was over 100 µM; with IGROV1 ovarian it was over 100 µM; in the test with NCI/ADR-RES ovarian, over 100 µM.
For `C#CCSC(C=C=C)P(=O)(OC(C)C)OC(C)C` (stereo not given), the TGI in the test on PC-3 prostate is over 100 µM; with MALME-3M melanoma, over 100 µM; in the test with OVCAR-3 ovarian it was over 100 µM; with UACC-62 melanoma, over 100 µM; with MDA-MB-435, over 100 µM; with MOLT-4 leukemia, 65.2 µM. The TGI in the test with HL-60(TB) leukemia, in the test on NCI-H23 lung, in the test on IGROV1 ovarian and with NCI/ADR-RES ovarian was over 100 µM throughout.
Take `C/C(Nc1ccc(F)cc1)=C1/CCOC1=O`: the TGI with PC-3 prostate, in the test on MALME-3M melanoma, with OVCAR-3 ovarian, with UACC-62 melanoma, with MDA-MB-435 and in the test on MOLT-4 leukemia was over 100 µM each time. For the same compound, the TGI in the test with HL-60(TB) leukemia, in the test with NCI-H23 lung, in the test with IGROV1 ovarian and in the test with NCI/ADR-RES ovarian was over 100 µM throughout.
As for `O=C(OCCN=c1c2ccccc2ccc2ccccc12)c1ccc([N+](=O)[O-])cc1`, the TGI in the test with PC-3 prostate, in the test with MALME-3M melanoma, with OVCAR-3 ovarian, in the test on UACC-62 melanoma, in the test with MDA-MB-435 and in the test on MOLT-4 leukemia was over 100 µM in each case. The TGI in the test on HL-60(TB) leukemia, in the test on NCI-H23 lung, with IGROV1 ovarian and with NCI/ADR-RES ovarian was over 100 µM each time.
For the compound `CC1(C)CC(C)(C)C1=NNC(N)=O`, the TGI with PC-3 prostate, in the test on MALME-3M melanoma, with OVCAR-3 ovarian, in the test with UACC-62 melanoma, in the test with MDA-MB-435 and with MOLT-4 leukemia was over 100 µM throughout. In addition, the TGI in the test with HL-60(TB) leukemia, in the test with NCI-H23 lung, in the test on IGROV1 ovarian and in the test on NCI/ADR-RES ovarian was over 100 µM each time.
With `O=c1ccn(CC2(CO)CC(Cc3ccccc3)C2)c(=O)[nH]1` (stereo not given), the TGI with PC-3 prostate, in the test on MALME-3M melanoma, with OVCAR-3 ovarian, with UACC-62 melanoma, with MDA-MB-435 and in the test with MOLT-4 leukemia was over 100 µM throughout. Moreover, the TGI with HL-60(TB) leukemia, with NCI-H23 lung, in the test on IGROV1 ovarian and in the test with NCI/ADR-RES ovarian was over 100 µM throughout.
As to `CC1CC/C(=C\c2ccc(Cl)cc2)C2OC(N)=C(C#N)C(c3ccc(Cl)cc3)=C12` (stereo not given), the TGI in the test with PC-3 prostate amounted to 28.4 µM; in the test with MALME-3M melanoma it was 28.7 µM; with OVCAR-3 ovarian, 27.5 µM; in the test on UACC-62 melanoma it was 31 µM; with MDA-MB-435, 44.2 µM; with MOLT-4 leukemia, 24.2 µM. Also, the TGI with HL-60(TB) leukemia was 27.4 µM; in the test with NCI-H23 lung, 29.4 µM; in the test on IGROV1 ovarian, 26.5 µM; with NCI/ADR-RES ovarian, 25.9 µM.
Turning to `CC(C)C(OC(=O)c1ccc(NCc2cc(O)ccc2O)cc1)C(C)C`, the TGI was 3.96 µM in the test on PC-3 prostate; 3.3 µM in the test on MALME-3M melanoma; 4.37 µM in the test with OVCAR-3 ovarian; 3.27 µM in the test on UACC-62 melanoma; 5.59 µM in the test on MDA-MB-435; 0.956 µM in the test on MOLT-4 leukemia. For the same compound, the TGI with HL-60(TB) leukemia was 0.484 µM; in the test on NCI-H23 lung, 6.56 µM; in the test with IGROV1 ovarian it was 2.35 µM; in the test on NCI/ADR-RES ovarian, 6.14 µM.
As to `CC(C)(Oc1ccc(Cl)cc1)C(=O)N(C(=O)N1CCC(c2ccccc2)CC1)c1ccccc1`, the TGI is over 100 µM in the test on PC-3 prostate; over 100 µM in the test with MALME-3M melanoma; over 100 µM in the test with OVCAR-3 ovarian; over 100 µM in the test on UACC-62 melanoma; over 100 µM in the test on MDA-MB-435; over 28.3 µM in the test with MOLT-4 leukemia. For the same compound, the TGI in the test on HL-60(TB) leukemia is 29 µM; in the test on NCI-H23 lung it was over 100 µM; in the test with IGROV1 ovarian, over 100 µM; with NCI/ADR-RES ovarian, over 100 µM.

For the origin of these results see PubChem BioAssay (NCI).
